Tests used:
Escherichia coli = conditions: E. coli, 1000 ppm acetic acid aqueous solution
Experimental: (§1) In this example, the antimicrobial activity of acetic acid against various bacteria was evaluated. As a control, a saline was used. The antimicrobial activity was evaluated on the basis of the number of colonies of the bacterium on the solid culture medium.
(§2) To each of an acetic acid aqueous solution and a saline, various species of bacteria were added to a concentration of 1×10^5 cells/mL to obtain bacterial suspensions. Each 100 μL was taken from the obtained bacterial suspensions, and these were taken as samples at day 0 of culture. The remaining bacterial suspensions were cultured for 7 days at 37° C. for E. coli and S. aureus and at 25° C. for P. aeruginosa, and each 100 μL was taken from the obtained bacterial suspensions as samples at day 7 of culture. Each 100 μL of the sample was coated on a heart infusion agar culture medium, and cultured at the respective culture temperatures. The culture time was 20 hours for E. coli, 24 hours for S. aureus and 48 hours for P. aeruginosa. After culturing, the number of colonies on the agar culture medium was counted, and the bacterial number (CFU/mL) was calculated.

Pseudomonas aeruginosa = conditions: P. aeruginosa, 1000 ppm acetic acid aqueous solution
Experimental: as §1, §2

Staphylococcus aureus = conditions: S. aureus, 1000 ppm acetic acid aqueous solution
Experimental: as §1, §2

CC(=O)O [acetic acid]
0 CFU/mL: Bacterial number At day 7 (Escherichia coli; cultured 7 days at 37° C.) | Bacterial number At day 7 (Pseudomonas aeruginosa; cultured 7 days at 25° C.) | Bacterial number At day 7 (Staphylococcus aureus; cultured 7 days at 37° C.)
1000 CFU/mL: Bacterial number At day 0 (Escherichia coli; day 0 of culture) | Bacterial number At day 0 (Pseudomonas aeruginosa; day 0 of culture) | Bacterial number At day 0 (Staphylococcus aureus; day 0 of culture)
cannot be proliferated: proliferation of bacteria in the solution (Escherichia coli; culturing for 7 days) | proliferation of bacteria in the solution (Pseudomonas aeruginosa; culturing for 7 days) | proliferation of bacteria in the solution (Staphylococcus aureus; culturing for 7 days)

— US20160363588A1, “URINE SAMPLE ANALYSIS METHOD AND REAGENT KIT FOR URINE SAMPLE ANALYSIS” (SYSMEX CORPORATION, priority 2014, published 2016)
